Laboratory results taken from patent US8507440B2, “Protein kinase C peptides for use in withdrawal” (The Board of Trustees of the Leland Stanford Junior …, priority 2002, dated 2013).
Ends that are not written are not given here.

Experiments:
[1] = test system: 7 day old and 21 day old rats; test: ethanol withdrawal mechanical allodynia testing (von Frey threshold withdrawal force); assay type: in vivo, rat
γPKC = biological target: T1, γPKC (Rattus norvegicus, UniProt P63319); assay type: cell-based
T1 construct: from tissue; host or cells: lumbar spinal cord slices of postnatal day 7-10 Sprague-Dawley rats
Experimental: Fluorescence immunocytochemical studies were performed on the spinal cord sections, as described in Example 3. The sections were incubated with an anti-γPKC antibody and an anti-neuronal antibody to identify neurons. […] Translocation of γPKC was quantified by counting the number of cells with γPKC localized to the nucleus before (control) and after application of ethanol, as well as after washing with artificial cerebrospinal fluid. […] Two to three sections per animal were counted.
Fluorescence immunocytochemical studies were performed on spinal cord sections […] from control slices (perfused with ACSF for 70 minutes) and EtOH treated slices (perfused with ACSF for 30 minutes followed by 20 min 100 mM EtOH and 20 min wash with ACSF). The sections were incubated with a rabbit anti-PKCg polyclonal antibody (1:500) overnight at 4° C. In some cord sections, a mouse anti-neuronal nuclei monoclonal antibody (NeuN, 1:750) was added to identify neurons. After several washes with ACSF, the sections were labeled for 2 hours at room temperature with fluorescein-labeled secondary antibodies (1:500). Double immunofluorescence was assessed with a laser confocal microscope.

[2] = test system: 7 day old and 21 day old rats; test: ethanol withdrawal thermal hyperalgesia testing (paw withdrawal latency); assay type: in vivo, rat; details: 7 day old rats; intrathecally 4 hours after 4 g/kg 15% EtOH
isolated spinal cords = test: slow ventral root potential (sVRP) of isolated spinal cord, naloxone-precipitated morphine withdrawal hyperresponsiveness; assay type: cell-based, rat
From the text: The slow ventral root potential (sVRP) is an electrophysiolgical measurement of nociceptive-related response in the spinal cord lasting approximately 40 seconds (Yanagisawa et al., Eur. J. Pharmacol., 106:231-239 (1984); Akagi H. et al., British J. Pharmacol., 84:663-673 (1985); Otsuka M. et al., J. Physiol., 395:255-270 (1988)). It is evoked by stimulation of a lumbar dorsal root at an intensity sufficient to activate small diameter afferents that transmit nociceptive (painful) stimuli from the periphery to the spinal cord (Lozier A. P. et al., J. Neurophysiol., 74:1001-1009 (1995)). […] Thus, the sVRP is related to pain, and its exaggeration following naloxone is a manifestation of withdrawal which translates to an increase in pain sensation in vivo.
Spinal cords from 4-7 day old rats (Charles River Laboratories) were removed and arranged for electrophysiological recording of the slow ventral root potentials (sVRP) (Woodley S. J., et al., Brain Res., 559:17-21 (1991). Briefly, pups were decapitated under halothane anesthesia and the spinal cord removed to an oxygenated artificial cerebrospinal fluid solution. A suction stimulating electrode was placed on a lumbar dorsal root and a suction recording electrode on the corresponding ipsilateral ventral root. Square wave stimuli 0.2 ms in duration were administered at a constant frequency of 1/50 seconds throughout the experiment. Test agents were applied and the responses were recorded, digitized, and area under the curve measured.
After a baseline reading of the sVRP, morphine (200 nM) was applied to the isolated spinal cords. The sVRP was again recorded to characterize the response to morphine. Naloxone (200 nM) was then applied and the sVRPs recorded.
FIGS. 2A-2D show the results after application of non-specific PKC antagonist, GF109203X (1.2 μM), and of an inhibitor specific to Ca++-dependent PKC isoforms, Go6976 (1 μM).
FIGS. 3A-3B show the results after application of the εPCK antagonist (εV1-2; SEQ ID NO:1, 2 nM), conjugated to a peptide carrier (Tat; SEQ ID NO:3) and the Tat peptide alone (2 nM; SEQ ID NO:3). FIGS. 3C-3D show the results after application of γPKC (γV5-3; SEQ ID NO:2, 4 nM) conjugated to a peptide carrier (Tat; SEQ ID NO:3) and of the Tat peptide alone (4 nm; SEQ ID NO:3).

[3] = test system: N-methyl-D-aspartate (NMDA) receptor currents; test: alcohol withdrawal hyperresponsiveness of NMDA-evoked currents in lumbar spinal cord slice motor neurons; assay type: cell-based, rat
From the text: Spinal cords were taken from young rats, and slices of these cords were made and placed in artificial cerebrospinal fluid for patch clamp electrophysiological analysis, to characterize the ability of γPKC peptides to mediate alcohol withdrawal hyperresponsiveness of N-methyl-D-aspartate (NMDA) receptor currents. FIG. 7A is a schematic diagram of the technique, where a lumbar spinal cord slice 10 is shown. The placement of a recording electrode 12 and a pipette 14 for application of NMDA relative to a motor neuron 16 is illustrated.
Sprague-Dawley rats at postnatal day 7-10 were anesthetized with halothane, decapitated, and the spinal cords were quickly removed. Slices […] thick were sectioned from the lumbar region. Whole cell voltage clamp recordings were made from visually-identified motor neurons using infrared video microscopy, a 60× water immersion lens, and a MultiClamp 700A patch clamp amplifier. Cells were held at a holding potential of −60 mV in artificial cerebrospinal fluid (ACSF) containing bicuculline methiodide ([…]), strychnine ([…]), and tetrodotoxin ([…]). Postsynaptic currents were evoked by direct pressure application of 2 mM N-methyl-D-aspartate (NMDA) from a pipette positioned near the recorded cell at 1-2 min intervals, as illustrated in FIG. 7A. The area of evoked currents during and following 100 mM ethanol (EtOH) application was measured and normalized to the average baseline current area during the 10 minutes preceding EtOH application. Data are expressed as mean +/−SEM: Statistical significance was determined by one-way ANOVA followed by Dunn's or Tukey's multiple comparison test with significance set at p<0.05.

Q: Which “mechanical allodynia, threshold withdrawal force” value ([1]; 7 day old rats, 5 μL of 20 μM intrathecally 5 hours after 4 g/kg 15% EtOH i.p., 6 and 7 hour post-EtOH, versus Tat carrier) does the source give for “RLVLAS (also: Tat peptide conjugate; listed as Homo sapiens) [γV5-3]” here?
A: attenuated mechanical allodynia

Q: And the “mechanical allodynia, threshold withdrawal response” value ([1]; 21 day old rats, 10 μL of 20 μM intrathecally 4 hours after 4 g/kg 15% EtOH i.p.)?
A: prevented a decrease in threshold withdrawal response

Q: What about the “number of cells having γPKC localized in the nucleus” value (γPKC; peptide applied 20 minutes prior to ethanol) of the same substance?
A: about 14

Q: And the “block of γPKC translocation to the cytoplasm” value (γPKC; peptide applied prior to ethanol exposure)?
A: effective to block γPKC translocation to the cytoplasm

Q: What about the “thermal hyperalgesia, paw withdrawal latency” value [2] of the same substance?
A: completely prevented thermal hyperalgesia

Q: What about the “effect on sVRP of inhibitor alone” value (isolated spinal cords; absence of morphine) of the same substance?
A: did not significantly altered the sVRP

Q: And the “block of naloxone-precipitated withdrawal hyperresponsiveness of sVRP” value (isolated spinal cords; morphine 200 nM then naloxone 200 nM, GF109203X 1.2 μM, Go6976 1 μM, εV1-2 2 nM, γV5-3 4 nM, Tat 2-4 nM)?
A: reduced withdrawal hyperresponsiveness, but not to a significantly greater amount than the Tat carrier vehicle alone

Q: What about the “block of ethanol withdrawal hyperresponsiveness of NMDA-evoked currents” value ([3]; 2 nM peptide, ethanol 100 mM 15 minutes then wash) of the same substance?
A: did not completely block withdrawal hyperresponsiveness

Q: What about the “block of ethanol withdrawal hyperresponsiveness of NMDA-evoked currents” value ([3]; 5-10 nM peptide, ethanol 100 mM then wash) of the same substance?
A: effectively blocked ethanol withdrawal hyperresponsiveness
